Results from US8497349B2, “Use of multivalent synthetic ligands of surface nucleolin for treating cancer or inflammation” (Centre National de la Recherche Scientifique (CNRS), priority 2006, dated 2013).
Side chains are listed from the residue outwards. Peptide text beside a SMILES is read from it. * marks the point of attachment. X1 = NCCCC[C@H](N)CN1CCC[C@H]1C(=O)*

Columns and labels:
MDA-MB231 tumours = assay: Tumour growth in MDA-MB231 xenograft model in athymic mice; assay type: in vivo, athymic mice (nude/nude)
Protocol: FIG. 9. Effect of HB-19 on tumour growth in an MDA-MB231 xenograft model. Human mammary carcinoma MDA-MB231 cells were injected subcutaneously athymic mice (nude). When the tumour reached a volume of 200 mm^3, mice were treated by subcutaneous route as shown in graph in A. B. Observation and measurement of tumours in mice sacrificed at day 40. C. Tumour weight in mice sacrificed at day 40.
FIG. 10. Effect of HB-19 on tumour growth in an MDA-MB231 xenograft model. Changes in tumour growth. Intraperitoneal (IP) or subcutaneous (SC) injections.
Groups of 4 athymic mice (nude/nude) were injected in the flank with 2×10^6 cells. When tumour volume reached at least 200 mm^3, mice were either treated or not by injection in the tumour (peritumoral or subcutaneous route) of 100 μl every two days of a PBS solution (control group) or HB-19 solution (5 mg/kg) or a commonly used clinical agent, tamoxifen (also called […], 10 mg/kg). Tumour size was measured on days 7, 14, 21, 28, 34 and 40 using a calliper.
In another experiment, HB19 (5 mg/kg) was administered by intraperitoneal route (IP) and peritumoral route (SC) (FIG. 10).

[1] = cited from earlier work
NIH-3T3 cells = assay: Proliferation of NIH-3T3 cells stimulated by 5% foetal calf serum (tritiated thymidine incorporation); assay type: cell-based; settings: non-stimulated NIH-3T3 cells
Protocol: FIG. 5. Effect of HB-19 on the proliferation of NIH-3T3 cells stimulated by 0.2 nM FGF-2 (A) or by 5% foetal calf serum (B). Quiescent NIH-3T3 cells are stimulated by FGF-2 or by 5% serum in the presence or not of HB19 at the concentrations indicated. After 24 hours of incubation, cell proliferation was determined by measuring the incorporation of tritiated thymidine. The results are given as a percentage with respect to the control stimulated by HARP (100%). MSD (threshold), (**p<0.01 and ***p<0.001).
FIG. 14. Effect of NUCANT 3, 6 and 7 on the proliferation of NIH-3T3 cells stimulated by 5% FCS. […] After 24 hours of incubation, cell proliferation was determined by measuring the incorporation of tritiated thymidine. […]
The effect of Nucant 3 on the proliferation of NIH-3T3 cells treated by 5% of FCS was also compared to that of compound HB-19. […] After 24 hours in incubation, cell proliferation is determined by measuring the incorporation of tritiated thymidine as described earlier.
The effect of hexavalent compounds Nucant 6 and Nucant 7 on the proliferation of NIH-3T3 cells triggered by 5% FCS was compared with that of pentavalent compound HB-19. […] After 24 hours of incubation, cell proliferation was determined by measuring the incorporation of tritiated thymidine as described above.

surface nucleolin = biological target: T1, surface nucleolin (Homo sapiens, UniProt P19338); assay: Activity of surface nucleolin in HeLa P4 cells; assay type: cell-based
T1 construct: endogenous in cells; host or cells: HeLa P4 cells
Protocol: FIG. 15. Nucant 6 and Nucant 7 show better anti-surface nucleolin activity than HB-19. ID50: concentration in μM which inhibits surface nucleolin by 50%. ID95: concentration in μM which inhibits surface nucleolin by 95%.
The activity of surface nucleolin was tested in HeLa P4 cells using the technique we have described previously (13).

[2] = 10 mg/kg, mice sacrificed after 40 days of treatment

T1 sequence (P19338 whole entry): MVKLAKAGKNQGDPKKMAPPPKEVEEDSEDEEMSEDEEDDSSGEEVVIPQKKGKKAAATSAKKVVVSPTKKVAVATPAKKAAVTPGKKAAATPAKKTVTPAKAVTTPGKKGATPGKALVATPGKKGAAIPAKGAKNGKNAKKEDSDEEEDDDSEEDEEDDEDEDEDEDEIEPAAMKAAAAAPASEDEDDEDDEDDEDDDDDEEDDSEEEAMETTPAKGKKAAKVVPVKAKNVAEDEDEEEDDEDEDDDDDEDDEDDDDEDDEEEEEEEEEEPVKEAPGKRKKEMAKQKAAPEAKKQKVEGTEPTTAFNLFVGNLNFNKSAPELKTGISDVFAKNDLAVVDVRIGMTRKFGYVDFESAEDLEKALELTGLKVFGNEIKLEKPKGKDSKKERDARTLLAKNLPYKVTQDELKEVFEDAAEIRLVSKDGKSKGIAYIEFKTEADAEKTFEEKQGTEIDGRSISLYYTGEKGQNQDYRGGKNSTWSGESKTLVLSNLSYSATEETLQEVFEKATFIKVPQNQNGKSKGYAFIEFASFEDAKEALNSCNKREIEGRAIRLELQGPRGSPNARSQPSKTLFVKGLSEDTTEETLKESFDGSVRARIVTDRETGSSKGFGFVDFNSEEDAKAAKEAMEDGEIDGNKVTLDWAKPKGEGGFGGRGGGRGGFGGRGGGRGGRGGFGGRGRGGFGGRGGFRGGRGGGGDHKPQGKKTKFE

CC/C(=C(\c1ccccc1)c1ccc(OCCN(C)C)cc1)c1ccccc1 [tamoxifen]
change of tumour volume from the start of treatment (MDA-MB231 tumours; 10 mg/kg every two days): did not change in a significant manner
average weight of tumours (MDA-MB231 tumours; [2]): 0.06 g
distribution of tumour weight (MDA-MB231 tumours; [2]): 0.006 to 0.22 g

Avastin: anti-angiogenic agent
survival ([1]; complement to chemotherapy (irinotecan/5-fluorouracile/leucovorin)): 20.3 months
length of time during which the tumour did not grow ([1]; complement to chemotherapy): 10.6 months

CC(=O)N[C@@H](CCCCNC(=O)[C@H](CCCNC(=N)N)NC(=O)[C@@H]1CCCN1C[C@@H](N)CCCCN)C(=O)N[C@@H](C)C(=O)N[C@@H](CCCCNC(=O)[C@H](CCCNC(=N)N)NC(=O)[C@@H]1CCCN1C[C@@H](N)CCCCN)C(=O)N1CCC[C@H]1C(=O)NCC(=O)N[C@@H](CCCCNC(=O)[C@H](CCCNC(=N)N)NC(=O)[C@@H]1CCCN1C[C@@H](N)CCCCN)C(=O)N[C@@H](C)C(=O)N[C@@H](CCCCNC(=O)[C@H](CCCNC(=N)N)NC(=O)[C@@H]1CCCN1C[C@@H](N)CCCCN)C(=O)N1CCC[C@H]1C(=O)NCC(=O)N[C@@H](CCCCNC(=O)[C@H](CCCNC(=N)N)NC(=O)[C@@H]1CCCN1C[C@@H](N)CCCCN)C(=O)N[C@@H](C)C(=O)N[C@@H](CCCCNC(=O)[C@H](CCCNC(=N)N)NC(=O)[C@@H]1CCCN1C[C@@H](N)CCCCN)C(=O)N1CCC[C@H]1C(=O)NCC(N)=O [Nucant 7] (Ac-K([Arg-X1])AK([Arg-X1])PGK([Arg-X1])AK([Arg-X1])PGK([Arg-X1])AK([Arg-X1])PG-NH2)
effect on non-stimulated cells (toxicity) (NIH-3T3 cells): No effect
inhibition at 0.8 µM (surface nucleolin; M-HeLa, 0.8 μM): > 95%
IC50 (surface nucleolin; read-out: ID50 value (Inhibitory Dose at 50%), surface nucleolin activity): < 100 nM
